# Assay results taken from US4772587A, “Dipeptide derivative of fatty acid” (Suntory Limited, priority 1985, dated 1988).
# Non-standard residues stand in square brackets, D forms with d. Residues, ends and D or L forms follow the SMILES beside them. *: point of attachment. Oleoyl = CCCCCCCC/C=C\CCCCCCCC(=O)*; Stearoyl = CCCCCCCCCCCCCCCCCC(=O)*; Palmitoyl = CCCCCCCCCCCCCCCC(=O)*; Nle = CCCC[CH](N)C(=O)O; Cbz = O=C(OCc1ccccc1)*
# Columns and labels:
# prolyl endopeptidase = prolyl endopeptidase (Elizabethkingia meningoseptica, UniProt P27028); experiment: Measurement of anti-prolyl endopeptidase activity (decomposition of Z-glycyl-proline-β-naphthylamide); type: biochemical; details: substrate Z-glycyl-proline-β-naphthylamide, phosphate buffer pH 7.0
# Procedure: The method of Yoshimoto and Tsuru (T. Yoshimoto and D. Tsuru, Agr. Biol. Chem. 42, 2417, 1978) was used to measure the anti-prolyl endopeptidase activities of several compounds of the present invention. A mixture of 0.0025M Z-glycyl-proline-β-naphthylamide (0.25 ml), 0.1M phosphate buffer (pH, 7.0; 0.99 ml) and a solution of a particular anti-prolyl endopeptidase compound (0.01 ml) was incubated in a test tube at 37° C. for 3 minutes. Thereafter, 0.1 ml of a solution of prolyl endopeptidase (0.2 U/ml) was added and the mixture was heated at 35° C. for 10 minutes. After the reaction, 2.0 ml of Triton X-100 in 1M acetate buffer (pH, 4.0) was added to the reaction mixture until the final concentration of the surfactant was 10%. The mixture was left at room temperature for 15 minutes and the absorbance (a) at 410 nm was measured.
# A sample for blind test was prepared by using the buffer instead of the anti-prolyl endopeptidase compound and its absorbance (b) was also measured. The percent inhibition of prolyl endopeptidase was calculated by the formula: ((b-a)/b)×100, and the amount of a specific compound to achieve 50% inhibition (IC50) was determined.
# [1] = tested on: experimental amnesia caused in rats by scopolamine; experiment: Preventive effect against experimental amnesia caused in rats by scopolamine (passive avoidance learning); type: in vivo, Wister male rats; details: for anti-amnesic action (in words): administered orally (so in the source) in an amount of 1 mg/kg; for Avoidance time 24 hrs. later / Avoidance time 48 hrs. later / No. of amnesic rats/No. of rats tested / Percentage amnesia: scopolamine 3 mg/kg i.p. after learning
# Procedure: Several of the anti-prolyl endopeptidase compounds of the present invention were checked for their ability to prevent the inhibition of long-term memory fixation by scopolamine. Solutions of physiological saline (0.3 ml) that contained selected compounds of the present inventions in varying amounts ([…], 0.25 mg, 0.1 mg, 0.025 mg and 0.010 mg/kg) were administered intraperitoneally once a day to Wister male rats (100-120 g). One hour after the administration, electric shocks (1.7 mA) were applied to the rats so that they would acquire passive avoidance learning. Immediately thereafter, scopolamine was administered intraperitoneally to each rat in an amount of 3 mg per kg of body weight.
# The result of the test was assessed both 24 hours and 48 hours after the administration of scopolamine. The number of amnesic rats and of sound rats was counted for each of the control group (rats to which the test compounds had not been administered but to which only scopolamine and physiological saline had been administered intraperitoneally and the treated group (rats to which both the test compound and scopolamine had been administered). The results are shown in Table 3.
# [2] = tested on: experimental amnesia caused in rats by scopolamine; experiment: as above; type: in vivo, Wister male rats; details: for Avoidance time 48 hrs. later: sample 1 mg/kg i.p., scopolamine 3 mg/kg i.p. after learning
# [3] = administered orally (so in the source) in an amount of 0.1 mg/kg
# [4] = administered orally (so in the source) in an amount of 0.025 mg/kg
# prolyl endopeptidase, sequence (P27028 21-705): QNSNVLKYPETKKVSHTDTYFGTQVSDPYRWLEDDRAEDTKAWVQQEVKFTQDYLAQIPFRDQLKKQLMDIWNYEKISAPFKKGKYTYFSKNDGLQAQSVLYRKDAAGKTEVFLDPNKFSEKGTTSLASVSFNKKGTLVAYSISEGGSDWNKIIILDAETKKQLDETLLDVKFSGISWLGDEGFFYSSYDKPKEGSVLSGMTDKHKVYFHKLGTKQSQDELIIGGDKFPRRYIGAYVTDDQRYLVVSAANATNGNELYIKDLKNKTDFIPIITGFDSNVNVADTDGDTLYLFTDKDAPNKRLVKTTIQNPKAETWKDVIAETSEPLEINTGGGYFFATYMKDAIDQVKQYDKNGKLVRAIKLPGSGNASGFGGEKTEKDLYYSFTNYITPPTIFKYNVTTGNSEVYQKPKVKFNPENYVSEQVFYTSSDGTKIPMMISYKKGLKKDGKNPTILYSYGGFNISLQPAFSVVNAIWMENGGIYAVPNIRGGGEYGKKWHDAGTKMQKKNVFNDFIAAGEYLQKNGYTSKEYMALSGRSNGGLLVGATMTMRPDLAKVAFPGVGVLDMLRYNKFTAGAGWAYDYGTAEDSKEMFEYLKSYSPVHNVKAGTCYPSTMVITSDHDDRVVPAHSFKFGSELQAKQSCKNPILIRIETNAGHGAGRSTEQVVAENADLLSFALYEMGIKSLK
Compound,IC50 (amount of compound to achieve 50% inhibition) (prolyl endopeptidase) [ng/test tube],Avoidance time 24 hrs. later ([1]; sample 25 μg/kg i.p.) [s],Avoidance time 48 hrs. later ([1]; sample 25 μg/kg i.p.) [s],No. of amnesic rats/No. of rats tested ([1]; sample 25 μg/kg i.p.),Percentage amnesia ([1]; sample 25 μg/kg i.p.) [%],Avoidance time 24 hrs. later ([1]; sample 100 μg/kg i.p.) [s],Avoidance time 48 hrs. later ([1]; sample 100 μg/kg i.p.) [s],No. of amnesic rats/No. of rats tested ([1]; sample 100 μg/kg i.p.),Percentage amnesia ([1]; sample 100 μg/kg i.p.) [%],"anti-amnesic action (in words) [2, 3]",further results
"CCCCCCCC/C=C\CCCCCCCC(=O)NC(C)C(=O)N1CCCC1C=O (centres unmarked) [SUAM 1092, oleoyl-Ala-pro-CHO]",12.0,,,,,,,,,,
"CCCCCCCC/C=C\CCCCCCCC(=O)NC(CC(C)C)C(=O)N1CCCC1C=O (stereo not drawn) [SUAM 1140, Oleoyl-Leu-Pro-CHO] (Oleoyl-Leu-Pro-aldehyde; configuration not given here)",0.8,300,300,0/5,0,300,300,0/5,0,considerably excellent anti-amnesic action,anti-amnesic action (in words) [1]: no remarkable effect; Avoidance time 24 hrs. later ([1]; sample 10 μg/kg i.p.): 185.0 s; Avoidance time 48 hrs. later ([1]; sample 10 μg/kg i.p.): 189.0 s; No. of amnesic rats/No. of rats tested ([1]; sample 10 μg/kg i.p.): 2/5; Percentage amnesia ([1]; sample 10 μg/kg i.p.): 40%; Avoidance time 24 hrs. later ([1]; sample 250 μg/kg i.p.): 263 s; Avoidance time 48 hrs. later ([1]; sample 250 μg/kg i.p.): 284 s; No. of amnesic rats/No. of rats tested ([1]; sample 250 μg/kg i.p.): 1/5; Percentage amnesia ([1]; sample 250 μg/kg i.p.): 20%; Avoidance time 24 hrs. later ([1]; sample 1 mg/kg i.p.): 73.0 s; No. of amnesic rats/No. of rats tested ([1]; sample 1 mg/kg i.p.): 3/5; Percentage amnesia ([1]; sample 1 mg/kg i.p.): 60%; Avoidance time 48 hrs. later [2]: 103.0 s
"CCCCCCCCCCCCCCCCCC(=O)NC(CC(C)C)C(=O)N1CCCC1C=O (stereo not drawn) [SUAM 1154, stearoyl-Leu-Pro-CHO] (Stearoyl-Leu-Pro-aldehyde; configuration not given here)",1.0,,,,,300,300,0/10,0,strong anti-amnesic action,
"CCCCCCCCCCCCCCCC(=O)NC(CC(C)C)C(=O)N1CCCC1C=O (stereo not drawn) [SUAM 1155, palmitoyl-Leu-Pro-CHO] (Palmitoyl-Leu-Pro-aldehyde; configuration not given here)",0.7,,,,,300,300,0/10,0,strong anti-amnesic action,
"CCCCCCCC/C=C\CCCCCCCC(=O)NC(C(=O)N1CCCC1C=O)C(C)C (stereo not drawn) [SUAM 1156, oleoyl-Val-Pro-CHO] (Oleoyl-Val-Pro-aldehyde; configuration not given here)",0.7,,,,,300,276.4,1/10,10,considerably excellent anti-amnesic action,anti-amnesic action (in words) [1]: no remarkable effect; Avoidance time 24 hrs. later ([1]; sample 250 μg/kg i.p.): 240.6 s; Avoidance time 48 hrs. later ([1]; sample 250 μg/kg i.p.): 226.0 s; No. of amnesic rats/No. of rats tested ([1]; sample 250 μg/kg i.p.): 2/10; Percentage amnesia ([1]; sample 250 μg/kg i.p.): 20%; Avoidance time 24 hrs. later ([1]; sample 1 mg/kg i.p.): 184.0 s; No. of amnesic rats/No. of rats tested ([1]; sample 1 mg/kg i.p.): 5/10; Percentage amnesia ([1]; sample 1 mg/kg i.p.): 50%; Avoidance time 48 hrs. later [2]: 119.8 s
"CCCCCCCC/C=C\CCCCCCCC(=O)NC(CC(C)C)C(=O)NC(CC(C)C)C(=O)N1CCCC1C=O (stereo not drawn) [SUAM 1158, oleoyl-Leu-Leu-Pro-CHO] (Oleoyl-Leu-Leu-Pro-aldehyde; configuration not given here)",80.0,300,300,0/10,0,300,300,0/10,0,strong anti-amnesic action,"anti-amnesic action (in words) [2, 4]: excellent effect"
"CCCCCCCC/C=C\CCCCCCCC(=O)NC(CCCC)C(=O)N1CCCC1C=O (stereo not drawn) [SUAM 1166, oleoyl-norLeu-Pro-CHO] (Oleoyl-[Nle]-Pro-aldehyde; configuration not given here)",0.8,300,300,0/10,0,,,,,,"anti-amnesic action (in words) [2, 4]: strong anti-amnesic action"
"CCCCCCCC/C=C\CCCCCCCC(=O)NC(CCCCNC(=O)OCc1ccccc1)C(=O)N1CCCC1C=O (centres unmarked) [SUAM 1216, oleoyl-Lys(Z)-Pro-CHO] (Oleoyl-Lys(Cbz)-Pro-aldehyde; configuration not given here)",0.6,,,,,,,,,,
"CCCCCCCC/C=C\CCCCCCCC(=O)NC(CCC=O)C(=O)N1CCCC1C=O (centres unmarked) [SUAM 1217, oleoyl-Glu(CHO)-Pro-CHO]",0.3,,,,,,,,,,
linoleoyl-Leu-Pro-CHO [SUAM 1157],0.6,,,,,,,,,,
